Data taken from patent publication US20100261739A1, “Method of Treating Non-Small Cell Lung Cancer” (Myriad Pharmaceuticals, Inc., priority 2007, published 2010).
Structures can show the parent of a compound that is named as a salt.

System: Subjects with Refractory Solid Tumors
Experiment: Phase I clinical trial, open-label, dose-escalating, multiple-dose, weekly intravenous administration
Format: in vivo, human
Description: An open-label, dose-escalating, multiple-dose study to define the safety, tolerability and phamacokinetics of weekly intravenous administration of (4-Methoxy-phenyl)-methyl-(2-methyl-quinazolin-4-yl)-amine hydrochloride was performed. A dosing schedule (each 4 week cycle) was performed for (4-Methoxy-phenyl)-methyl-(2-methyl-quinazolin-4-yl)-amine hydrochloride weekly for 3 weeks with no infusion on the fourth week of each cycle. Subjects with refractory solid tumors were enrolled. During Cycle 1, subjects were hospitalized during each infusion of (4-Methoxy-phenyl)-methyl-(2-methyl-quinazolin-4-yl)-amine hydrochloride and remained for observation and safety evaluation for approximately 24 hours following the end of the infusion. All subject had continuous telemetry for 2 hours prior to infusion, for 1-2 hour infusion and for 3 hours after the end of the infusion. Any clinically significant electrocardiographic (ECG) wave form abnormality was recorded and prolongation of the monitoring period extended at the discretion of the principal investigator.
Electrocardiograms were obtrained prior to starting the infusion and within 30 minutes of the end of infusion for each infusino of the first cycle. Electrocardiograms on Day 1 were obtained in triplicate 5 minutes apart.
Neurocognitive assessments were made by administration of the Mini-Mental State Examination (MMSE), the Hopkins Verbal Learning and timed Grooved Pegboard tests before administration of the intravenous infusion and approximately 24 hours after the infusion at each weekly administration of the first cycle.
On days 1, 8, and 15 of each cycle, vital signs were obtained prior to the first dose, at 15, 30, and 60 minutes after the initiation of the infusion, and at 0.5, 1, 1.5, 2, and 4 hours after the end of the intravenous infusion. Vital signs at all time points beyond the start of the intravenous infusion included heart rate, blood pressure and respirations. Temperature was measured at the end of the infusion and 4 hours later.
Individual subjects were allowed to continue on repeated weekly ×3 administrations every 28 days with no dose increase provided there was no unacceptable toxicity or disease progression.
Tumor response was evaluated by response evaluation criteria in solid tumors
(RECIST) criteria. To prevent sever hypersensitivity reactions due to Cremophor® EL, subjects were premedicated with oral dexamethasone (20 mg) administered approximately 12 and 6 hours before the intravenous infusion with (4-Methoxy-phenyl)-methyl-(2-methyl-quinazolin-4-yl)-amine hydrochloride, diphenhydramine (50 mg) or its equivalent administered intravenously 30-60 minutes before (4-Methoxy-phenyl)-methyl-(2-methyl-quinazolin-4-yl)-amine hydrochloride, and cimetidine (300 mg) or ranitidine (50 mg) administered intravenously 30-60 minutes before (4-Methoxy-phenyl)-methyl-(2-methyl-quinazolin-4-yl)-amine hydrochloride.

[1] = at the administered doses (0.3-4.5 mg/m^2), weekly i.v.

COc1ccc(N(C)c2nc(C)nc3ccccc23)cc1 [(4-Methoxy-phenyl)-methyl-(2-methyl-quinazolin-4-yl)-amine hydrochloride]
cytotoxicity peripherally [1]: no evidence from the results of the clinical trials of cytotoxicity peripherally | effect on laboratory parameters (neutrophils, platelets, hemoglobin) [1]: no apparent effect | safety and tolerability (human subjects at selected dosages, summary of Phase 1 studies): safe and well tolerated | disease progression (tumor response by RECIST criteria) (one patient in Cohort 10 (3.3 mg/m^2) with NSCLC that had metastasized to the CNS, weekly i.v. for 3 weeks of each 4 week cycle): not shown to have disease progression | dose limiting toxicity (particularly in Cohorts 8 and 9 (3.9 and 4.5 mg/m^2)): vascular in nature, manifested by an acute coronary syndrome | intratumor bleeding (weekly i.v., human subjects): incidences of intratumor bleeding | optimal dosage derived from the trials (weekly i.v., hydrochloride salt basis): ≤ 3.3 mg/m^2 | safety and tolerability (within dosage range 3.3 mg/m^2 or lower): safe and tolerated
